# Laboratory results taken from patent US20220168268A1, “SMALL-MOLECULE INHIBITOR OF PD-1/PD-L1, PHARMACEUTICAL COMPOSITION THEREOF WITH PD-L1 ANTIBODY, AND APPLICATION OF SAME” (Guangzhou Maxinovel Pharmaceuticals Co., Ltd., priority 2019, published 2022).
# pIC50: −log10 of the molar value.
# Target: T1, PD-1/PD-L1 (Homo sapiens, UniProt Q9NZQ7)
# T1 construct: unspecified kit tag (tag1 or tag2, recognised by the detection antibodies); purchased CisBio 64CUS000C-1
# Assay: Homogeneous Time-Resolved Fluorescence (HTRF) PD-1/PD-L1 binding assay
# Settings: CisBio kit
# Method: Homogenouse Time-Resolved Fluorescence (HTRF) binding assay was used to determine the binding activity of the compound of the present disclosure to PD-1/PD-L1.
# The purchased kit (CisBio, #64CUS000C-1) contained the reagents required for experiments such as PD-1, PD-L1, anti-tagl-Eu, Anti-tag2-XL665, Dilute Buffer and Detection Buffer.
# 1. The compound was formulated to 10 concentrations with a three-fold concentration gradient with 100% DMSO.
# 2. The solution of the compound in DMSO was added to Dilute Buffer, and mixed evenly and then transferred to a 96-well plate.
# 3. PD-L1 was diluted with Dilute Buffer and added to the 96-well plate above.
# 4. PD-1 was diluted with Dilute Buffer, then added to the 96-well plate above and incubated at room temperature for 30 minutes.
# 5. One portion of anti-tag1-Eu and one portion of anti-tag2-XL665 were added to Detection Buffer, mixed evenly and transferred to the 96-well plate above.
# 6. The mixed solution in the 96-well plate were incubated at room temperature for 1 to 24 hours.
# 7. HTRF values were read by Envision.
# T1 sequence (Q9NZQ7 19-238 limits assumed): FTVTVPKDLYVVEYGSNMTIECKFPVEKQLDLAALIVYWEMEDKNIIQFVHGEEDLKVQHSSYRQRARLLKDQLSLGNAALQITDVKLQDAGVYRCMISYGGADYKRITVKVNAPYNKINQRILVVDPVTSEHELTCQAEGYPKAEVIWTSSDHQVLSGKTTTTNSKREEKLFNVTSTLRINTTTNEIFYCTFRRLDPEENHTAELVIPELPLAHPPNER
row,SMILES,pIC50
1,"Cc1c(/C=C/c2cc(CNC(CO)C(=O)O)ccc2C(F)(F)F)cccc1-c1ccc2c(c1)OCCO2 (stereo not drawn) [Compound 1, (E)-2-(3-(3-(2,3-dihydrobenzo[b][1,4]dioxin-6-yl)-2-methylstyryl)-4-(trifluoromethyl)benzylamino)-3-hydroxypropanoic Acid]",7.85
2,"COc1ccc(-c2cccc(/C=C/c3cc(CNC(C)(CO)C(=O)O)ccc3C)c2C)cc1 (stereo not drawn) [Compound 2, (E)-2-((3-(2-(4′-methoxy-2-methylbiphenyl-3-yl)vinyl)-4-methylbenzyl)amino)-3-hydroxy-2-methylpropanoic Acid]",5.51
3,"Cc1c(/C=C/c2cc(CNC(C)(CO)C(=O)O)ccc2C(F)(F)F)cccc1-c1cccc(F)c1 (stereo not drawn) [Compound 3, (E)-2-(3-(2-(3′-fluoro-2-methylbiphenyl-3-yl)vinyl)-4-(trifluoromethyl)benzylamino)-3-hydroxy-2-methylpropanoic Acid]",7.34
4,"Cc1c(/C=C/c2cc(CNC(C)(CO)C(=O)O)ccc2C(F)(F)F)cccc1-c1ccccc1 (stereo not drawn) [Compound 5, (E)-2-(3-(2-(2-methylbiphenyl-3-yl)vinyl)-4-(trifluoromethyl)benzylamino)-3-hydroxy-2-methylpropanoic Acid]",7.64
5,"Cc1c(/C=C/c2cc(CNC(C)(CO)C(=O)O)ccc2C(F)(F)F)cccc1-c1ccc(F)cc1 (stereo not drawn) [Compound 6, (E)-2-(3-(2-(4′-fluoro-2-methylbiphenyl-3-yl)vinyl)-4-(trifluoromethyl)benzylamino)-3-hydroxy-2-methylpropanoic Acid]",6.49
6,"Cc1ccc(CNC(C)(CO)C(=O)O)cc1/C=C/c1cccc(-c2ccc(F)cc2)c1C (stereo not drawn) [Compound 7, (E)-2-(3-(2-(4′-fluoro-2-methylbiphenyl-3-yl)vinyl)-4-methylbenzylamino)-3-hydroxy-2-methylpropanoic Acid]",5.85
7,"Cc1ccc(CNC(C)(CO)C(=O)O)cc1/C=C/c1cccc(-c2ccccc2)c1C (stereo not drawn) [Compound 8, (E)-2-(3-(2-(2-methylbiphenyl-3-yl)vinyl)-4-methylbenzylamino)-3-hydroxy-2-methylpropanoic Acid]",7.38
8,Cc1ccc(CNC(C)(CO)C(=O)O)cc1/C=C/c1cccc(-c2cccc(F)c2)c1C (stereo not drawn) [Compound 9],7.24
9,"Cc1c(/C=C/c2cc(CNC(CO)C(=O)O)ccc2F)cccc1-c1ccc2c(c1)OCCO2 (stereo not drawn) [Compound 12, (E)-2-(3-(3-(2,3-dihydrobenzo[b][1,4]dioxin-6-yl)-2-methylstyryl)-4-fluorobenzylamino)-3-hydroxypropanoic Acid]",7.62
10,"Cc1ccc(CN[C@@H](CO)C(=O)O)cc1/C=C/c1cccc(-c2ccc3c(c2F)OCCO3)c1C [Compound 14, (S,E)-2-(3-(3-(5-fluoro-2,3-dihydrobenzo[b][1,4]dioxin-6-yl)-2-methylstyryl)-4-methylbenzylamino)-3-hydroxypropanoic Acid]",7.72
11,"Cc1c(/C=C/c2cc(CNC(CO)C(=O)O)ccc2C(F)(F)F)cccc1-c1cccc(F)c1F (stereo not drawn) [Compound 15, (E)-2-(3-(2-(2′,3′-difluoro-2-methylbiphenyl-3-yl)vinyl)-4-(trifluoromethyl)benzylamino)-3-hydroxypropanoic Acid]",7.85
12,Cc1c(/C=C/c2cc(CN[C@@H](CO)C(=O)O)ccc2C(F)(F)F)cccc1-c1ccc2c(c1F)OCCO2 [Compound 16],7.89
13,"Cc1c(/C=C/c2cc(CNC(C)(CO)C(=O)O)ccc2C(F)(F)F)cccc1-c1ccccc1F (stereo not drawn) [Compound 17, (E)-2-(3-(2-(2′-fluoro-2-methylbiphenyl-3-yl)vinyl)-4-(trifluoromethyl)benzylamino)-3-hydroxy-2-methylpropanoic Acid]",7.70
14,"Cc1c(CCc2cc(CNC(CO)C(=O)O)ccc2C(F)(F)F)cccc1-c1ccccc1 (stereo not drawn) [Compound 18, 2-(3-(2-(2-Methylbiphenyl-3-yl)ethyl)-4-(trifluoromethyl)benzylamino)-3-hydroxypropanoic Acid]",7.34
15,"Cc1c(/C=C/c2cc(CNC(CO)(CO)C(=O)O)ccc2C(F)(F)F)cccc1-c1ccccc1 [Compound 19, (E)-2-(3-(2-(2-methylbiphenyl-3-yl)vinyl)-4-(trifluoromethyl)benzylamino)-3-hydroxy-2-hydroxymethylpropanoic Acid]",7.21
16,"Cc1c(/C=C/c2cc(CNC(C)(CO)C(=O)O)ccc2C(F)(F)F)cccc1-c1ccc2c(c1F)OCCO2 (stereo not drawn) [Compound 20, (E)-2-(3-(3-(5-fluoro-2,3-dihydrobenzo[b][1,4]dioxin-6-yl)-2-methylstyryl)-4-(trifluoromethyl)benzylamino)-3-hydroxy-2-methylpropanoic Acid]",7.74
17,"Cc1c(CCc2cc(CNC(C)(CO)C(=O)O)ccc2C(F)(F)F)cccc1-c1ccccc1 (stereo not drawn) [Compound 21, 2-(3-(2-(2-Methylbiphenyl-3-yl)ethyl)-4-(trifluoromethyl)benzylamino)-3-hydroxy-2-methylpropanoic Acid]",7.07

row,SMILES,pIC50
1,"Cc1c(CCc2cc(CNC(C)C(=O)O)ccc2C(F)(F)F)cccc1-c1ccccc1 (stereo not drawn) [Compound 22, 2-(3-(2-(2-Methylbiphenyl-3-yl)ethyl)-4-(trifluoromethyl)benzylamino) propanoic Acid]",7.36
2,"Cc1c(/C=C/c2cc(CNC(C)(CO)C(=O)O)ccc2C(F)(F)F)cccc1-c1cccc(F)c1F (stereo not drawn) [Compound 23, (E)-2-(3-(2-(2′,3′-difluoro-2-methylbiphenyl-3-yl)vinyl)-4-(trifluoromethyl)benzylamino)-3-hydroxy-2-methylpropanoic Acid]",7.59
3,"Cc1c(/C=C/c2cc(CNC(C)(CO)C(=O)O)cc3c2OCC3)cccc1-c1ccc2c(c1)OCCO2 (stereo not drawn) [Compound 24, (E)-2-((7-(3-(2,3-dihydrobenzo[b][1,4]dioxin-6-yl)-2-methylstyryl)-2,3-dihydrobenzofuran-5-yl)methylamino)-3-hydroxy-2-methylpropanoic Acid]",6.37
4,"Cc1c(/C=C/c2cc(CNC(C)(CO)C(=O)O)ccc2F)cccc1-c1ccc2c(c1)OCCO2 (stereo not drawn) [Compound 25, (E)-2-(3-(3-(2,3-dihydrobenzo[b][1,4]dioxin-6-yl)-2-methylstyryl)-4-fluorobenzylamino)-3-hydroxy-2-methylpropanoic Acid]",7.18
5,"Cc1ccc(CN[C@@](C)(CO)C(=O)O)cc1/C=C/c1cccc(-c2ccc3c(c2F)OCCO3)c1C [Compound 26, (S,E)-2-(3-(3-(5-fluoro-2,3-dihydrobenzo[b][1,4]dioxin-6-yl)-2-methylstyryl)-4-methylbenzylamino)-3-hydroxy-2-methylpropanoic Acid]",7.70
6,"Cc1ccc(CN[C@@](C)(CO)C(=O)O)cc1/C=C/c1cccc(-c2ccccc2)c1C [Compound 28, (S,E)-2-(3-(2-(2-methylbiphenyl-3-yl)vinyl)-4-methylbenzylamino)-3-hydroxy-2-methylpropanoic Acid]",7.54
7,"Cc1ccc(CN[C@@](C)(CO)C(=O)O)cc1/C=C/c1cccc(-c2ccc3c(c2F)OCCO3)c1C [Compound 30, (S,E)-2-(3-(3-(5-fluoro-2,3-dihydrobenzo[b][1,4]dioxin-6-yl)-2-methylstyryl)-4-methylbenzylamino)-3-hydroxy-2-methylpropanoic Acid]",7.57
8,"Cc1ccc(CN[C@@](C)(CO)C(=O)O)cc1/C=C/c1cccc(-c2ccccc2)c1C [Compound 31, (S,E)-2-(3-(2-(2-methylbiphenyl-3-yl)vinyl)-4-methylbenzylamino)-3-hydroxy-2-methylpropanoic Acid]",7.39
9,"Cc1c(/C=C/c2cc(C(C)NCC(=O)O)ccc2C(F)(F)F)cccc1-c1ccccc1 (stereo not drawn) [Compound 32, (E)-2-(1-(3-(2-(2-methylbiphenyl-3-yl)vinyl)-4-(trifluoromethyl)phenyl)ethylamino)acetic Acid]",7.62
10,"C[C@@](CO)(NCc1ccc(C(F)(F)F)c(/C=C/c2cccc(-c3ccccc3)c2F)c1)C(=O)O [Compound 33, (S,E)-2-(3-(2-(2-fluorobiphenyl-3-yl)vinyl)-4-(trifluoromethyl)benzylamino)-3-hydroxy-2-methylpropanoic Acid]",6.64
11,"C[C@](CO)(NCc1ccc(C(F)(F)F)c(/C=C/c2cccc(-c3ccccc3)c2F)c1)C(=O)O [Compound 34, (R,E)-2-(3-(2-(2-fluorobiphenyl-3-yl)vinyl)-4-(trifluoromethyl)benzylamino)-3-hydroxy-2-methylpropanoic Acid]",6.74
12,"Cc1c(/C=C/c2cc(CN[C@@](C)(CO)C(=O)O)ccc2C(F)(F)F)cccc1-c1ccc2ncoc2c1 [Compound 35, (S,E)-2-(3-(3-(benzo[d]oxazol-6-yl)-2-methylstyryl)-4-(trifluoromethyl)benzylamino)-3-hydroxy-2-methylpropanoic Acid]",5.96
13,Cc1c(/C=C/c2cc(CN[C@@](C)(CO)C(=O)O)ccc2C(F)(F)F)cccc1-c1ccc2nccn2c1 [Compound 36],< 5.00
14,Cc1c(/C=C/c2cc(CN[C@@](C)(CO)C(=O)O)ccc2C(F)(F)F)cccc1-c1cn2ccnc2cn1 [Compound 37],5.89
15,"Cc1c(/C=C/c2cc(CN[C@@](C)(CO)C(=O)O)ccc2C(F)(F)F)cccc1-c1ccc2cnoc2c1 [Compound 38, (S,E)-2-(3-(3-(benzo[d]isoxazol-6-yl)-2-methylstyryl)-4-(trifluoromethyl)benzylamino)-3-hydroxy-2-methylpropanoic Acid]",< 5.00
16,"Cc1c(/C=C/c2cc(CN[C@@](C)(CO)C(=O)O)ccc2C(F)(F)F)cccc1-c1ccccn1 [Compound 39, (S,E)-3-hydroxy-2-methyl-2-(3-(2-methyl-3-(pyridin-2-yl)styryl)-4-(trifluoromethyl)benzylamino)propanoic Acid]",5.66
